Measurements taken from US8551448B2, “Rotanone analogs: method of preparation and use” (The Regents of the University of California, priority 2006, dated 2013).
Like-named read-outs stand apart in the source and are kept apart here.

What was measured:
[1] = Biodistribution of iodorotenol and iodorotenone compounds in rats (organs and blood weighed and counted); details: for uptake in the heart relative to the Z isomer: twenty microcuries into tail vein
Procedure: Evaluation of the iodorotenol and iodorotenone compounds. […] Twenty microcuries of the compound was injected into the rat tail vein. At various time points post injection (30 m, 1 h, 2 h, and 4 h) rats were euthanized and the organs and blood were weighed and counted.

[2] = Dual head planar whole body imaging in canines; details: dogs; for heart uptake and retention (planar images): 4-6 mCi 123I compound iv in front leg vein, scans to 7 h (FIG. 17); for uptake in the thyroid: no thyroid blocking agent prior to the scan
Procedure: Two 20-25 kg dogs were anesthetized with iv sodium pentathol and maintained on inhaled isoflurane. Four to six mCi of Z-[^123I]Iodorotenone or E-[^123I]Iodorotenone was injected in a front leg vein. Dual head planar imaging was carried out using the GE Millenium SPECT scanner with Hawkeye xray CT. The scanning protocol was serial 4 m whole body scans over the first hour, 8 m whole body scans from 1-2 h and 30 min whole body scans out to 7 h post injection of the tracer. […] No thyroid blocking agent was introduced prior to the scan.

[3] = test system: isolated blood perfused rabbit heart; details: cited from earlier work

| SMILES | uptake in the heart relative to the Z isomer [1] | heart uptake and retention (planar images) [2] | uptake in the thyroid [2] | other results |
| --- | --- | --- | --- | --- |
| COc1cc2c(cc1OC)[C@@H]1C(=O)c3ccc4c(c3O[C@@H]1CO2)C[C@H](/C(C)=C/I)O4 [E-iodorotenone, E-7′-iodorotenone] | nearly double | greater heart uptake and retention | minimal | heart uptake, injected dose in the heart tissue ([1]; tail vein injection, at 1 hour): 6.5 % injected dose; time to which the heart is clearly visible ([2]; planar imaging post injection): 4.5 h |
| COc1cc2c(cc1OC)[C@@H]1C(=O)c3ccc4c(c3O[C@@H]1CO2)C[C@H](/C(C)=C\I)O4 [Z-iodorotenone, Z-7′-iodorotenone] |  | washed out of the heart faster | minimal | clearance through the gallbladder and stomach ([2]; planar imaging, compared with the E isomer): more rapidly |
| COc1cc2c(cc1OC)C1C(CO2)Oc2c(ccc3c2CC(C(C)=CI)O3)C1O (stereo not drawn) [E-iodorotenol, E-7′-iodorotenol] | two-fold increase |  |  |  |
| [C-]#[N+]CC(C)(C)OC.[C-]#[N+]CC(C)(C)OC.[C-]#[N+]CC(C)(C)OC.[C-]#[N+]CC(C)(C)OC.[C-]#[N+]CC(C)(C)OC.[C-]#[N+]CC(C)(C)OC.[Tc] [Tc-99m sestamibi] |  |  |  | net heart retention ([3]; at 1 min): 0.41±0.11; net heart retention ([3]; at 26 min): 0.27±0.11; extraction [3]: 0.48±0.10 |
